According to PubChem BioAssay AID330 (DTP/NCI, 2004):
Where “and” joins values, the source holds several entries; their conditions need not be identical. Equal entries are not always repeated. Inconclusive results and toxic doses are left out. How the source made its calls: active means survival T/C of 150% or more; inactive means T/C below 125% in these data.

Test system: P388 leukemia ip, CD2F1 mice, survival T/C
Assay: NCI In Vivo Anticancer Drug Screen. Data for tumor model P388 Leukemia (intraperitoneal) in CD2F1 (CDF1) mice
Conditions: endpoint: median survival time, higher = longer survival
Procedure, shortened: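 Mice carrying the transplanted tumor received test compound or vehicle. Survival was recorded in each group, and the value is the treated-group measurement divided by that of the vehicle-treated control group.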

[1] = dose: 12.5 mg/kg/injection, schedule: Q01DX009 (ip), vehicle: saline with Tween-80
[2] = dose: 25.0 mg/kg/injection, schedule: Q01DX009 (ip), vehicle: saline with Tween-80
[3] = dose: 50.0 mg/kg/injection, schedule: Q01DX009 (ip), vehicle: saline with Tween-80
[4] = dose: 60.0 mg/kg/injection, schedule: Q01DX005 (ip), vehicle: saline with Tween-80
[5] = dose: 120.0 mg/kg/injection, schedule: Q01DX005 (ip), vehicle: saline with Tween-80
[6] = dose: 240.0 mg/kg/injection, schedule: Q01DX005 (ip), vehicle: saline with Tween-80
[7] = dose: 100.0 mg/kg/injection, schedule: Q01DX009 (ip), vehicle: saline with Tween-80
[8] = dose: 50.0 mg/kg/injection, schedule: Q01DX005 (ip), vehicle: Klucel (hydroxypropylcellulose) (HPC)
[9] = dose: 100.0 mg/kg/injection, schedule: Q01DX005 (ip), vehicle: Klucel (hydroxypropylcellulose) (HPC)
[10] = dose: 200.0 mg/kg/injection, schedule: Q01DX005 (ip), vehicle: Klucel (hydroxypropylcellulose) (HPC)
[11] = dose: 100.0 mg/kg/injection, schedule: Q04DX003 (ip), vehicle: saline with Tween-80
[12] = dose: 200.0 mg/kg/injection, schedule: Q04DX003 (ip), vehicle: saline with Tween-80
[13] = dose: 50.0 mg/kg/injection, schedule: Q01DX005 (ip), vehicle: saline with Tween-80
[14] = dose: 100.0 mg/kg/injection, schedule: Q01DX005 (ip), vehicle: saline with Tween-80
[15] = dose: 200.0 mg/kg/injection, schedule: Q01DX005 (ip), vehicle: saline with Tween-80
[16] = dose: 25.0 mg/kg/injection, schedule: Q04DX003 (ip), vehicle: saline
[17] = dose: 50.0 mg/kg/injection, schedule: Q04DX003 (ip), vehicle: saline
[18] = dose: 100.0 mg/kg/injection, schedule: Q04DX003 (ip), vehicle: saline
[19] = dose: 25.0 mg/kg/injection, schedule: Q01DX005 (ip), vehicle: saline with Tween-80
[20] = dose: 6.25 mg/kg/injection, schedule: Q01DX009 (ip), vehicle: Klucel (hydroxypropylcellulose) (HPC)
[21] = dose: 12.5 mg/kg/injection, schedule: Q01DX009 (ip), vehicle: Klucel (hydroxypropylcellulose) (HPC)
[22] = dose: 25.0 mg/kg/injection, schedule: Q01DX009 (ip), vehicle: Klucel (hydroxypropylcellulose) (HPC)
[23] = dose: 100.0 mg/kg/injection, schedule: Q01DX009 (ip), vehicle: other
[24] = dose: 200.0 mg/kg/injection, schedule: Q01DX009 (ip), vehicle: other
[25] = dose: 50.0 mg/kg/injection, schedule: Q01DX009 (ip), vehicle: Klucel (hydroxypropylcellulose) (HPC)
[26] = dose: 100.0 mg/kg/injection, schedule: Q01DX009 (ip), vehicle: Klucel (hydroxypropylcellulose) (HPC)
[27] = dose: 200.0 mg/kg/injection, schedule: Q01DX009 (ip), vehicle: Klucel (hydroxypropylcellulose) (HPC)

Measured: T/C

CC1(c2ccc(Cl)cc2)NC(=O)N(CN2CCCCC2)C1=O (stereo not drawn)
inactive: [1] 100 % of control | [2] 100 % of control | [3] 100 % of control | dose: 50.0 mg/kg/injection, schedule: Q04DX003 (ip), vehicle: saline sonified 100 % of control | dose: 100.0 mg/kg/injection, schedule: Q04DX003 (ip), vehicle: saline sonified 107 % of control | dose: 200.0 mg/kg/injection, schedule: Q04DX003 (ip), vehicle: saline sonified 100 % of control

CC(C)(C)c1cc(C(C)(C)C)c2ssnc1-2
inactive: [4] 89 % of control | [5] 91 % of control | [6] 91 % of control

N=c1c2c(ncn1Cc1ccccc1)CCN(Cc1ccccc1)C2
inactive: [1] 101 % of control | [2] 100 % of control and 114 % of control | [3] 104 % of control | [7] 112 % of control

COc1cc(Br)c(/C=N/O)cc1OC
inactive: [8] 104 % of control | [9] 95 % of control | [10] 91 % of control

O=C(CCCCl)CC(O)(C(F)(F)F)C(F)(F)F
inactive: [11] 110 % of control | [12] 90 % of control

COc1ccc(C2CC(=O)c3c(O)cc(OC4OC(CO)C(O)C(O)C4OC4OC(C)C(O)C(O)C4O)cc3O2)cc1O (stereo not drawn)
inactive: [13] 102 % of control | [14] 100 % of control | [15] 92 % of control

O=C(O)c1ccccc1Nc1cccc([N+](=O)[O-])c1
inactive: [16] 99 % of control | [17] 114 % of control | [18] 114 % of control | dose: 200.0 mg/kg/injection, schedule: Q04DX003 (ip), vehicle: saline 112 % of control

NCCO/C=C/C(N)C(=O)O (stereo not drawn)
inactive: dose: 31.2 mg/kg/injection, schedule: Q01DX009 (ip), vehicle: saline 99 % of control | dose: 62.5 mg/kg/injection, schedule: Q01DX009 (ip), vehicle: saline 99 % of control | dose: 125.0 mg/kg/injection, schedule: Q01DX009 (ip), vehicle: saline 99 % of control

CCOC(=O)c1cnc2cc3c(c[nH]n3C(c3ccccc3)(c3ccccc3)c3ccccc3)cc2c1=O
inactive: [3] 94 % of control | [7] 96 % of control | dose: 200.0 mg/kg/injection, schedule: Q01DX009 (ip), vehicle: saline with Tween-80 97 % of control

COc1ccc2c(Br)c(NC(C)=O)ccc2c1Br
inactive: [16] 100 % of control | [17] 96 % of control | [18] 98 % of control and 96 % of control | dose: 400.0 mg/kg/injection, schedule: Q04DX003 (ip), vehicle: saline 95 % of control

O=C(N/N=C\c1cccc2ccccc12)C(=O)N/N=C/c1cccc2ccccc12
inactive: dose: 12.5 mg/kg/injection, schedule: Q01DX005 (ip), vehicle: saline with Tween-80 93 % of control | [19] 91 % of control | [13] 94 % of control | [14] 87 % of control | [15] 91 % of control

O=c1c(O)c(-c2cc(O)c(O)c(O)c2)oc2cc(O)cc(O)c12
inactive: [20] 105 % of control | [21] 112 % of control | [22] 124 % of control | [23] 89 % of control | [24] 98 % of control

CCOC(=O)C(C)P(=O)(OC)OC (stereo not drawn)
inactive: dose: 50.0 mg/kg/injection, schedule: Q01DX005 (ip), vehicle: saline 100 % of control | dose: 100.0 mg/kg/injection, schedule: Q01DX005 (ip), vehicle: saline 98 % of control | dose: 200.0 mg/kg/injection, schedule: Q01DX005 (ip), vehicle: saline 103 % of control

O=C(OCCCN1CCCC1)C(c1ccccc1)C1C=CCC1 (stereo not drawn)
inactive: [20] 100 % of control | [21] 98 % of control | [22] 100 % of control | [25] 101 % of control | [26] 95 % of control | [27] 100 % of control | dose: 400.0 mg/kg/injection, schedule: Q01DX009 (ip), vehicle: Klucel (hydroxypropylcellulose) (HPC) 100 % of control

Cc1cc(=O)oc2c(C)c3oc4ccncc4c3cc12
inactive: [8] 104 % of control | [9] 110 % of control | [10] 107 % of control

COc1ccc(/C=C2\SC(=S)N(C3CC3)C2=O)cc1OC
inactive: [8] 94 % of control | [9] 88 % of control

CNCCN1CCC(Cc2ccccc2)CC1
inactive: dose: 50.0 mg/kg/injection, schedule: Q01DX009 (ip), vehicle: saline 100 % of control | dose: 100.0 mg/kg/injection, schedule: Q01DX009 (ip), vehicle: saline 100 % of control

O=C(c1ccccc1)C12CCC(CC1)CC2
inactive: [25] 94 % of control | [26] 94 % of control | [27] 109 % of control

CCOC(=O)CN(CCN(CC)CC)c1ccc([N+](=O)[O-])cc1[N+](=O)[O-]
inactive: dose: 100.0 mg/kg/injection, schedule: Q01DX001 (ip), vehicle: other 95 % of control | dose: 200.0 mg/kg/injection, schedule: Q01DX001 (ip), vehicle: other 100 % of control

COc1ccc(NC(N)=S)cc1OC
inactive: dose: 50.0 mg/kg/injection, schedule: Q04DX003 (ip), vehicle: saline with Tween-80 95 % of control | [11] 88 % of control | [12] 88 % of control

O=C1CS(=O)(=O)C(c2ccc(Cl)cc2)N1N1C(=O)CS(=O)(=O)C1c1ccc(Cl)cc1 (stereo not drawn)
inactive: [19] 98 % of control and 109 % of control | [13] 95 % of control and 96 % of control | [14] 87 % of control and 95 % of control

O=S(OC(c1ccccc1)(C(F)(F)F)C(F)(F)F)OC(c1ccccc1)(C(F)(F)F)C(F)(F)F
inactive: dose: 32.0 mg/kg/injection, schedule: Q01DX009 (ip), vehicle: Klucel (hydroxypropylcellulose) (HPC) 97 % of control | dose: 64.0 mg/kg/injection, schedule: Q01DX009 (ip), vehicle: Klucel (hydroxypropylcellulose) (HPC) 101 % of control | dose: 128.0 mg/kg/injection, schedule: Q01DX009 (ip), vehicle: Klucel (hydroxypropylcellulose) (HPC) 101 % of control

Nc1ccccc1C(=O)CCc1c[nH]c2ccccc12
inactive: [4] 96 % of control | [5] 90 % of control | [6] 86 % of control

COc1cccc(/C=N\NC(=O)CNC(=O)Nc2ccc(Cl)c(Cl)c2)c1OC
inactive: dose: 15.0 mg/kg/injection, schedule: Q01DX005 (ip), vehicle: saline with Tween-80 91 % of control | dose: 30.0 mg/kg/injection, schedule: Q01DX005 (ip), vehicle: saline with Tween-80 88 % of control | [6] 95 % of control

CCO/C=N/NS(=O)(=O)c1ccc(C)cc1
inactive: dose: 6.25 mg/kg/injection, schedule: Q01DX009 (ip), vehicle: distilled water + Tween-80 108 % of control | dose: 12.5 mg/kg/injection, schedule: Q01DX009 (ip), vehicle: distilled water + Tween-80 108 % of control | dose: 12.5 mg/kg/injection, schedule: Q01DX009 (ip), vehicle: other 104 % of control | [1] 105 % of control | [2] 98 % of control | dose: 50.0 mg/kg/injection, schedule: Q01DX009 (ip), vehicle: other 104 % of control | [3] 96 % of control | [23] 98 % of control | [7] 92 % of control | [24] 106 % of control

C/C(=N/N/C=N/S(C)(=O)=O)c1ccccc1
inactive: [8] 103 % of control | [9] 100 % of control | [10] 99 % of control

Cn1c(CN(CCN(Cc2nc3ccccc3n2C)Cc2nc3ccccc3n2C)Cc2nc3ccccc3n2C)nc2ccccc21
inactive: [13] 100 % of control | [14] 96 % of control | [15] 101 % of control
